We go through 33 compounds from ChEMBL document CHEMBL2406911, “Structure guided design of a series of sphingosine kinase (SphK) inhibitors” (Bioorg Med Chem Lett, 2013).

Data set [1] addresses Sphingosine kinase 1 (Mus musculus, UniProt Q8CI15). Nature of the data set: Inhibition of mouse SphK1.
Data set [2] in a line: Oral bioavailability in mouse at 5 mg/kg. The conditions noted are these: in vivo. Type of data set: ADME, organism-based.
The nature of data set [3]: Mean residence time in mouse at 5 mg/kg, po. Type of data set: ADME, organism-based. Details: dose 5 mg/kg, route oral. Conditions: in vivo.
Data set [4] in a line: Clearance in mouse at 5 mg/kg, po. Conditions: in vivo. Type of data set: ADME, organism-based. On the set-up: dose 5 mg/kg, route oral.
Data set [5] is described as follows: Fraction unbound in human plasma by ultra-centrifugation method. It counts as ADME, cell-free.
A short description of data set [6]: Fraction unbound in rat plasma by ultra-centrifugation method. It counts as ADME, cell-free.
The nature of data set [7]: Volume of distribution at steady state in rat at 0.5 mg/kg, iv. Type of data set: ADME, organism-based. On the set-up: dose 0.5 mg/kg, route intravenous. The conditions noted are these: in vivo, read-out: Vdss.
Data set [8] can be described thus: Mean residence time in rat at 0.5 mg/kg, iv. It counts as ADME, organism-based. On the set-up: dose 0.5 mg/kg, route intravenous. The conditions noted are these: in vivo.
A short description of data set [9]: Clearance in rat at 0.5 mg/kg, iv. The conditions noted are these: in vivo. Type of data set: ADME, organism-based. On the set-up: dose 0.5 mg/kg, route intravenous.
The target of data set [10] is T1, Sphingosine kinase 1 (Homo sapiens, UniProt Q9NYA1).
T1 sequence (Q9NYA1 whole entry): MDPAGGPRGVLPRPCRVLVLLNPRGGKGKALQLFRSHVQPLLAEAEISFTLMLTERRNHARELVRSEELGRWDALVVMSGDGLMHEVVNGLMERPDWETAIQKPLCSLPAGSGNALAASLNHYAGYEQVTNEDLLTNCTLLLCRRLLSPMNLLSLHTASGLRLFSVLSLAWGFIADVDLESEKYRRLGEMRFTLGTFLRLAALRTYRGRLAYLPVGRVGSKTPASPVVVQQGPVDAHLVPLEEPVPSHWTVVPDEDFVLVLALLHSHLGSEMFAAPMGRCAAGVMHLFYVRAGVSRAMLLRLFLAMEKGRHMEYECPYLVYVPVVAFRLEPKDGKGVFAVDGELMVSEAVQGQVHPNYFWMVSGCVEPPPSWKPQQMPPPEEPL
Description: Inhibition of SphK1 in human WM266-4 cells assessed as inhibition of formation of [17C]-S1P formation after 20 mins by LC-MS analysis
Data set [11] addresses T1, Sphingosine kinase 1. The source holds these as a separate data set.
Description: Inhibition of purified human SphK1 assessed as inhibition of formation of [33P]-S1P after 50 mins by scintillation counting
The target of data set [12] is T2, Sphingosine kinase 2 (Homo sapiens, UniProt Q9NRA0).
T2 sequence (Q9NRA0 whole entry): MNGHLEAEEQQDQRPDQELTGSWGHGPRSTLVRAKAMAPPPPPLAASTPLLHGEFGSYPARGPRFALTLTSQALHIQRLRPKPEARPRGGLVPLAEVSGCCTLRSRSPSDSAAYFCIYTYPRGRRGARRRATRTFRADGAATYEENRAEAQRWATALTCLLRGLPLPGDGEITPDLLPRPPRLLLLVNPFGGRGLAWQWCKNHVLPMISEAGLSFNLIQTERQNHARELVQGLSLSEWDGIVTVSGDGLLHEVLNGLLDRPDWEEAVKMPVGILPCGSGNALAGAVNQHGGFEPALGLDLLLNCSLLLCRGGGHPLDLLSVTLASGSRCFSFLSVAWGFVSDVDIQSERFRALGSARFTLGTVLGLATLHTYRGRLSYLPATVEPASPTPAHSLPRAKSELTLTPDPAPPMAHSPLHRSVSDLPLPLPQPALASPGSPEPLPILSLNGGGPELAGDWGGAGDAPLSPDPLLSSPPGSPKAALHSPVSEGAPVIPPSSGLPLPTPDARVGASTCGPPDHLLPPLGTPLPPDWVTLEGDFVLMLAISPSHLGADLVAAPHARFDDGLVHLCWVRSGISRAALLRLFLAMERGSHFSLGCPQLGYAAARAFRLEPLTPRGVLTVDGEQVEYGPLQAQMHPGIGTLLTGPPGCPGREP
Description: Inhibition of purified human SphK2 assessed as inhibition of formation of [33P]-S1P after 50 mins by scintillation counting

Data set [13] has as its target T3, Sphingosine kinase 2 (Mus musculus, UniProt Q9JIA7).
T3 sequence (Q9JIA7 whole entry): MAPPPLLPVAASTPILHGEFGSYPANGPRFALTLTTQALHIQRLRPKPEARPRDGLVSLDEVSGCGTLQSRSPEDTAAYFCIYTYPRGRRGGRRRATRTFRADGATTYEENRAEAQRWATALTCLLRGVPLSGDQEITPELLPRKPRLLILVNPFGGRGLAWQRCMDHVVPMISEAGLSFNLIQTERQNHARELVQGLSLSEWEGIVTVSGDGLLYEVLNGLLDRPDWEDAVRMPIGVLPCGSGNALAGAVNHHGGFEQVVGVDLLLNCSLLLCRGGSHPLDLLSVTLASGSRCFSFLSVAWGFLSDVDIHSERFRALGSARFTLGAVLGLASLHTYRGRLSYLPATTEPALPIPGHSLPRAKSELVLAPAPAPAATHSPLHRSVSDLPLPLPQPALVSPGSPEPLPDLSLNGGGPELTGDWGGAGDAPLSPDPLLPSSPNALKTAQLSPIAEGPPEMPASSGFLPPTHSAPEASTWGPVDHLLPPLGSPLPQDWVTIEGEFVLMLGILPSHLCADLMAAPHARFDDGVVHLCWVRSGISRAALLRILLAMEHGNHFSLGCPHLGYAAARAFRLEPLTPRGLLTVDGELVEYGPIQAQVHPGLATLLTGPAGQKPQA
As to the kind of experiment: Inhibition of mouse SphK2.

Chain of Sphingosine kinase 1 (Mus musculus, UniProt Q8CI15) (Q8CI15 whole entry): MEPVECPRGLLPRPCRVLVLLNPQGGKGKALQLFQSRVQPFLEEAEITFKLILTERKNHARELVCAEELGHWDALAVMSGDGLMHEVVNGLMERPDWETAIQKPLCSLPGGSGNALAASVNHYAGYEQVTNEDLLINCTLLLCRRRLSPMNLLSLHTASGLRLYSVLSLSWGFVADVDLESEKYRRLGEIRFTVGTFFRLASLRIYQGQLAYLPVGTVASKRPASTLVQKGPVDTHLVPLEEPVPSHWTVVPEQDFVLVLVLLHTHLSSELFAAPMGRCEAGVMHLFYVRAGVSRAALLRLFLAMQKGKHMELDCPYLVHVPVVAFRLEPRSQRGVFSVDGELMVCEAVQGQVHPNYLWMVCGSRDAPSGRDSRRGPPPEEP

As usually defined, the IC50 is the midpoint of a concentration-inhibition curve. A lower IC50 goes with inhibition by little substance. By bioavailability is commonly meant the share of a dose that reaches the circulation, judged against a reference dose that is usually intravenous. Read a high bioavailability as good availability. A word on the MRT: it is the average time that molecules of a dose stay in the body. In general, CL/F refers to the apparent clearance, not corrected for the fraction that reaches the circulation. What is called fraction unbound is free concentration divided by total concentration. The low end stands for extensive binding, the high end for weak binding. Usually clearance stands for a measure of how efficiently the substance is removed, as volume per time. `OC[C@H]1C[C@@H](O)CCN1CCc1ccc(Nc2nc(-c3ccc(C(F)(F)F)cc3)cs2)cc1` gave an IC50 against Sphingosine kinase 1 [1] of 0.07 µM. The compound further had a bioavailability in data set [2] of 32%. Besides, the results for the MRT in data set [3] and in data set [8] were 13 h and 12 h, respectively. For the same compound, in [4], the CL/F was 11.7 mL/min/kg. Also, the fraction unbound amounted to 0.04 in data set [5] and 0.03 in [6]. The Vd in data set [7] came out at 17 L/kg. The clearance in data set [9] was 23.3 mL/min/kg.

The EC50 is the concentration needed to bring the measured effect to its halfway point. A high value points to weaker potency. Regarding `OC[C@H]1C[C@@H](O)CCN1CCc1ccc(Nc2nc(-c3ccccc3)cs2)cc1`, the concentration for a half-maximal effect (EC50) on Sphingosine kinase 1 [10] turned out to be 0.31 µM. This compound gave an IC50 against Sphingosine kinase 1 [11] of 0.07 µM.

`OCC1CCCCCN1CCc1ccc(Nc2nc(-c3ccc4ccccc4c3)cs2)cc1` (configuration not stated): the IC50 against Sphingosine kinase 2 [12] was greater than 10 µM.

Consider `OC[C@H]1CCCCN1CCc1ccc(Nc2nc(-c3ccc(Cl)cc3)cs2)cc1`, for which the IC50 against Sphingosine kinase 1 [11] amounted to 0.08 µM.

For the compound `OC[C@H]1C[C@H](O)CN1CCCc1ccc(Nc2nc(-c3ccc(Cl)c(Cl)c3)cs2)cc1`, in data set [7], the Vd is greater than 100 L/kg. Moreover, the clearance in [9] is greater than 233 mL/min/kg. The IC50 was 0.09 µM on Sphingosine kinase 2 [12] and 0.03 µM against Sphingosine kinase 1 [11].

On to `OC[C@H]1C[C@@H](O)CCN1CCc1ccc(Nc2nc(-c3ccc(Cl)cc3Cl)cs2)cc1`, for which the IC50 is greater than 10 µM against Sphingosine kinase 2 [13] and 0.02 µM against Sphingosine kinase 1 [1]. The fraction unbound in data set [5] was found to be 0.02; in [6] it was 0.01. In addition, the Vd in data set [7] worked out at 18 L/kg. The compound also came in with an MRT in [8] of 14 h. For the same compound, the clearance in data set [9] is 21.7 mL/min/kg.

Regarding `OC[C@H]1C[C@H](O)CN1CCc1ccc(Nc2nc(-c3ccc(Cl)c(Cl)c3)cs2)cc1`, in [7], the Vd was greater than 100 L/kg. Further, the clearance in data set [9] was greater than 233 mL/min/kg. On Sphingosine kinase 2 [12], the IC50 came to 0.25 µM.

The compound `COC[C@H]1CCCN1CCc1ccc(Nc2nc(-c3ccc4ccccc4c3)cs2)cc1` registered an IC50 at Sphingosine kinase 2 [12] of 5.7 µM.

As for `OC[C@H]1C[C@@H](O)CCN1CCc1ccc(Nc2nc(-c3ccc(Cl)cc3)cs2)cc1`, the EC50 on Sphingosine kinase 1 [10] was determined as 0.13 µM. The same compound came in with an IC50 against Sphingosine kinase 1 [11] of 0.008 µM.

For `OCC1CCN1CCc1ccc(Nc2nc(-c3ccc4ccccc4c3)cs2)cc1` (configuration not stated), half-maximal inhibition on Sphingosine kinase 2 [12] (IC50) was put at 2.5 µM.

A word on the Ki: it is a measure of affinity in units of concentration, obtained from inhibition or displacement. Regarding `CCCCc1ccc(/C=C/[C@H](O)[C@@H](CO)NC)cc1`, the Ki on Sphingosine kinase 2 [12] was greater than 100 µM; at Sphingosine kinase 1 [11] it was 10 µM.

Consider `OC[C@H]1C[C@@H](O)CCN1CCc1ccc(Nc2nc(-c3cccc(C(F)(F)F)c3F)cs2)cc1`, for which, at Sphingosine kinase 1 [10], the response was half-maximal at 0.25 µM (EC50). Moreover, the 50% inhibitory concentration (IC50) against Sphingosine kinase 1 [11] was determined as 0.005 µM.

On to `OC[C@@H]1CCCN1CCc1ccc(Nc2nc(-c3ccc4ccccc4c3)cs2)cc1`, for which the concentration for half-maximal inhibition (IC50) at Sphingosine kinase 2 [12] came out at 2.5 µM; on Sphingosine kinase 1 [11] it was 0.99 µM.

`OC[C@H]1C[C@@H](O)CCN1CCCc1ccc(Nc2nc(-c3ccc(Cl)c(Cl)c3)cs2)cc1`: the results for the IC50 at Sphingosine kinase 2 [12] and against Sphingosine kinase 1 [11] were greater than 10 µM and 2.5 µM, respectively.

`OC[C@H]1C[C@@H](O)CCN1CCc1ccc(Nc2nc(-c3cccc(F)c3)cs2)cc1` returned an IC50 against Sphingosine kinase 2 [12] greater than 5 µM.

In turn, `OC[C@H]1CCCCN1CCc1ccc(Nc2nc(-c3ccc4ccccc4c3)cs2)cc1` displayed a 50% inhibitory concentration (IC50) against Sphingosine kinase 1 [11] of 0.08 µM.

As to `OC[C@H]1CCCCN1CCc1ccc(Nc2nc(-c3cccc(Cl)c3)cs2)cc1`, half-maximal inhibition at Sphingosine kinase 1 [11] (IC50) was put at 0.27 µM. This IC50 lies about 3.4-fold higher than the previous one.

Regarding `OC[C@H]1CCCN1CCc1ccc(Nc2nc(-c3ccc4ccccc4c3)cs2)cc1`, the IC50 amounted to 2.7 µM against Sphingosine kinase 2 [12] and 0.58 µM against Sphingosine kinase 1 [11].

On to `CCCCCCCCCCCCc1ccc(C(=O)NC2(C(=N)N)CC2)cc1`, for which the Ki came out at 0.5 µM on Sphingosine kinase 2 [12] and 0.2 µM on Sphingosine kinase 1 [11].

As for `CCCCc1csc(Nc2ccc(CCN3CC[C@H](O)C[C@@H]3CO)cc2)n1`, at Sphingosine kinase 1 [10], a half-maximal response (EC50) required 0.37 µM. Also, the IC50 is greater than 5 µM against Sphingosine kinase 2 [12] and 0.07 µM at Sphingosine kinase 1 [11].

As for `CC(C)(C)c1csc(Nc2ccc(CCN3CC[C@H](O)C[C@@H]3CO)cc2)n1`, the 50% inhibitory concentration (IC50) was greater than 10 µM against Sphingosine kinase 2 [12] and greater than 5 µM at Sphingosine kinase 1 [11].

On Sphingosine kinase 2 [12], `OCC1COCCN1CCc1ccc(Nc2nc(-c3ccc4ccccc4c3)cs2)cc1` (configuration not stated) gave an IC50 greater than 10 µM.

On Sphingosine kinase 1 [11], `OC[C@@H]1CCCCN1CCc1ccc(Nc2nc(-c3ccc4ccccc4c3)cs2)cc1` came in with an IC50 of 1.1 µM.

On Sphingosine kinase 1 [10], `OC[C@H]1C[C@@H](O)CCN1CCc1ccc(Nc2nc(C3CCCC3)cs2)cc1` showed an EC50 of 0.85 µM. For the same compound, the results for the concentration for half-maximal inhibition (IC50) on Sphingosine kinase 2 [12] and against Sphingosine kinase 1 [11] were greater than 5 µM and 0.13 µM, respectively.

As for `Cc1ccc(-c2csc(Nc3ccc(CCN4CC[C@H](O)C[C@@H]4CO)cc3)n2)cc1`, the IC50 on Sphingosine kinase 1 [11] turned out to be 0.007 µM.

For the compound `OC[C@H]1C[C@@H](O)CN1CCCc1ccc(Nc2nc(-c3ccc(Cl)c(Cl)c3)cs2)cc1`, the Vd in data set [7] was greater than 100 L/kg. The compound further came in with a clearance in data set [9] greater than 233 mL/min/kg. Also, the IC50 against Sphingosine kinase 2 [12] worked out at 0.27 µM; at Sphingosine kinase 1 [11], 0.03 µM.

`O=S1(=O)CCN(CCc2ccc(Nc3nc(-c4ccc(Cl)c(Cl)c4)cs3)cc2)C(CO)C1` (configuration not stated) registered a half-maximal inhibitory concentration (IC50) against Sphingosine kinase 2 [12] of 3 µM.

Turning to `N=C(N)[C@@H]1CCCN1C(=O)c1ccc(-c2nc(-c3cccc(CCC4CCCCC4)c3)co2)cc1`, the figures for the inhibition constant (Ki) on Sphingosine kinase 2 [12] and at Sphingosine kinase 1 [11] were 4.2 µM and 0.05 µM, respectively.

`N#Cc1ccc(-c2csc(Nc3ccc(CCN4CCCC[C@@H]4CO)cc3)n2)cc1` registered an IC50 against Sphingosine kinase 1 [11] greater than 10 µM.

As to `OCCC1CCCCN1CCc1ccc(Nc2nc(-c3ccc4ccccc4c3)cs2)cc1` (configuration not stated), the 50% inhibitory concentration (IC50) against Sphingosine kinase 2 [12] and on Sphingosine kinase 1 [11] was greater than 10 µM in each case.

Turning to `OC[C@H]1C[C@@H](O)CN1CCc1ccc(Nc2nc(-c3ccc(Cl)c(Cl)c3)cs2)cc1`, the Vd in data set [7] was greater than 100 L/kg. For the same compound, the clearance in data set [9] is greater than 233 mL/min/kg. The compound also displayed an IC50 on Sphingosine kinase 2 [12] of 0.09 µM.

Compound `CN1CCN(CCc2ccc(Nc3nc(-c4ccc5ccccc5c4)cs3)cc2)C(CO)C1` (configuration not stated) displayed an IC50 against Sphingosine kinase 2 [12] of 1.7 µM.

`OCC1CCCCN1CCc1ccc(Nc2nc(-c3ccc4ccccc4c3)cs2)cc1` (configuration not stated) returned a half-maximal inhibitory concentration (IC50) at Sphingosine kinase 1 [11] of 0.14 µM.
